Measured values: publication PMC9299836 (eLife, 2022)

Biological target: mGluR2 (Mus musculus, UniProt Q14BI2, A548F)
Assay: smFRET of azi-CRD: cross-correlation of donor and acceptor intensities (CRD dynamics) and HMM transition density plots;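 note: single detergent-solubilized receptors captured on antibody-coated flow cells via C-terminal FLAG-tag, imaged by smFRET, donor and acceptor intensity traces from three independent biological replicates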

Sequence of mGluR2 (Q14BI2 19-872 A548F): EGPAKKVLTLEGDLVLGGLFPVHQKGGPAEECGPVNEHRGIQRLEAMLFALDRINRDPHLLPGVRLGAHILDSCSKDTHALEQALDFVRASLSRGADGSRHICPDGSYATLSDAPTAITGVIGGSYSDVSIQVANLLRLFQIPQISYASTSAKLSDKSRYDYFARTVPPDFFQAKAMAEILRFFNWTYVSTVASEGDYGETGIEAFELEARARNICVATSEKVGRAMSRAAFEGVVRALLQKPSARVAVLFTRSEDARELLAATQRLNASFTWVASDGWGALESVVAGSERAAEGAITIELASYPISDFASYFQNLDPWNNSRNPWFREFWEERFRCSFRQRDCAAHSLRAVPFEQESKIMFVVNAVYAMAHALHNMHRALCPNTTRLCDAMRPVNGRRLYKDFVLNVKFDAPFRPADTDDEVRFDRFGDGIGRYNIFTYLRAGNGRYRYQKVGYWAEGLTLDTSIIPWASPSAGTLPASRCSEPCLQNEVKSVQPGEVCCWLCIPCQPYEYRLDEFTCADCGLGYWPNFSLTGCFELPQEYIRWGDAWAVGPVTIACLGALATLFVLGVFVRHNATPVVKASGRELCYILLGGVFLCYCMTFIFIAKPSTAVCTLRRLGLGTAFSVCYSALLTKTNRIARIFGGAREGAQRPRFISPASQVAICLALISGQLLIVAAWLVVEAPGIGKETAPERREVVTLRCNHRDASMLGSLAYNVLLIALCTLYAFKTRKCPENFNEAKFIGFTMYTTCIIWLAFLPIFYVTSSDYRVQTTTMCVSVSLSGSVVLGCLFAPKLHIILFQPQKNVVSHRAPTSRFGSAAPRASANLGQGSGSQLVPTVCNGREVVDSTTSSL

In the case of Cc1c(OCc2cccc(-c3ccc(C(=O)O)cc3)c2)cc2c(c1C)C(=O)C(C1CCCC1)C2 (stereo not drawn) [BINA], the “Cross Correlation, Mean” value (0μM Glutamate + GPT/Pyruvate + 10μM BINA, Time 2.5 s, N 3) is reported as -0.01729, the “Cross Correlation, Mean” value (0μM Glutamate + GPT/Pyruvate + 10μM BINA, Time 2.55 s, N 3) is reported as -0.01573 and the “Cross Correlation, Mean” value (0μM Glutamate + GPT/Pyruvate + 10μM BINA, Time 2.6 s, N 3) is reported as -0.01304. For the same compound, the “Cross Correlation, Mean” value (0μM Glutamate + GPT/Pyruvate + 10μM BINA, Time 2.65 s, N 3) was -0.01522, the “Cross Correlation, Mean” value (0μM Glutamate + GPT/Pyruvate + 10μM BINA, Time 2.7 s, N 3) was -0.01589 and the “Cross Correlation, Mean” value (0μM Glutamate + GPT/Pyruvate + 10μM BINA, Time 2.75 s, N 3) was -0.00863. The “Cross Correlation, Mean” value (0μM Glutamate + GPT/Pyruvate + 10μM BINA, Time 2.8 s, N 3) was -0.00835, the “Cross Correlation, Mean” value (0μM Glutamate + GPT/Pyruvate + 10μM BINA, Time 2.85 s, N 3) was -0.01318 and the “Cross Correlation, Mean” value (0μM Glutamate + GPT/Pyruvate + 10μM BINA, Time 2.9 s, N 3) was -0.01103. The “Cross Correlation, Mean” value (0μM Glutamate + GPT/Pyruvate + 10μM BINA, Time 2.95 s, N 3) was -0.01389, the “Cross Correlation, Mean” value (Time 0.2 s, 1000μM Glutamate + 10μM BINA, N=3) was -0.07372 and the “Cross Correlation, Mean” value (Time 0.25 s, 1000μM Glutamate + 10μM BINA, N=3) was -0.0658. For the same compound, the “Cross Correlation, Mean” value (Time 0.3 s, 1000μM Glutamate + 10μM BINA, N=3) was -0.06773, the “Cross Correlation, Mean” value (Time 0.35 s, 1000μM Glutamate + 10μM BINA, N=3) was -0.06255 and the “Cross Correlation, Mean” value (Time 0.4 s, 1000μM Glutamate + 10μM BINA, N=3) was -0.05489. The “Cross Correlation, Mean” value (Time 0.45 s, 1000μM Glutamate + 10μM BINA, N=3) was -0.05062, the “Cross Correlation, Mean” value (Time 0.5 s, 1000μM Glutamate + 10μM BINA, N=3) was -0.04608 and the “Cross Correlation, Mean” value (Time 0.55 s, 1000μM Glutamate + 10μM BINA, N=3) was -0.05414. The “Cross Correlation, Mean” value (Time 0.6 s, 1000μM Glutamate + 10μM BINA, N=3) was -0.0452, the “Cross Correlation, Mean” value (Time 0.65 s, 1000μM Glutamate + 10μM BINA, N=3) was -0.04488 and the “Cross Correlation, Mean” value (Time 0.7 s, 1000μM Glutamate + 10μM BINA, N=3) was -0.04657. For the same compound, the “Cross Correlation, Mean” value (Time 0.75 s, 1000μM Glutamate + 10μM BINA, N=3) was -0.03909, the “Cross Correlation, Mean” value (Time 0.8 s, 1000μM Glutamate + 10μM BINA, N=3) was -0.03858 and the “Cross Correlation, Mean” value (Time 0.85 s, 1000μM Glutamate + 10μM BINA, N=3) was -0.03795. The “Cross Correlation, Mean” value (Time 0.9 s, 1000μM Glutamate + 10μM BINA, N=3) was -0.04083, the “Cross Correlation, Mean” value (Time 0.95 s, 1000μM Glutamate + 10μM BINA, N=3) was -0.04226 and the “Cross Correlation, Mean” value (Time 1 s, 1000μM Glutamate + 10μM BINA, N=3) was -0.03681. The “Cross Correlation, Mean” value (Time 1.05 s, 1000μM Glutamate + 10μM BINA, N=3) was -0.03546, the “Cross Correlation, Mean” value (Time 1.1 s, 1000μM Glutamate + 10μM BINA, N=3) was -0.03003 and the “Cross Correlation, Mean” value (Time 1.15 s, 1000μM Glutamate + 10μM BINA, N=3) was -0.02551. The “Cross Correlation, Mean” value (Time 1.2 s, 1000μM Glutamate + 10μM BINA, N=3) was -0.0316, the “Cross Correlation, Mean” value (Time 1.25 s, 1000μM Glutamate + 10μM BINA, N=3) was -0.02716 and the “Cross Correlation, Mean” value (Time 1.3 s, 1000μM Glutamate + 10μM BINA, N=3) was -0.03167. For the same compound, the “Cross Correlation, Mean” value (Time 1.35 s, 1000μM Glutamate + 10μM BINA, N=3) was -0.03105, the “Cross Correlation, Mean” value (Time 1.4 s, 1000μM Glutamate + 10μM BINA, N=3) was -0.03283 and the “Cross Correlation, Mean” value (Time 1.45 s, 1000μM Glutamate + 10μM BINA, N=3) was -0.03008. The “Cross Correlation, Mean” value (Time 1.5 s, 1000μM Glutamate + 10μM BINA, N=3) was -0.02156, the “Cross Correlation, Mean” value (Time 1.55 s, 1000μM Glutamate + 10μM BINA, N=3) was -0.02279 and the “Cross Correlation, Mean” value (Time 1.6 s, 1000μM Glutamate + 10μM BINA, N=3) was -0.0244. For the same compound, the “Cross Correlation, Mean” value (Time 1.65 s, 1000μM Glutamate + 10μM BINA, N=3) was -0.02489, the “Cross Correlation, Mean” value (Time 1.7 s, 1000μM Glutamate + 10μM BINA, N=3) was -0.02216 and the “Cross Correlation, Mean” value (Time 1.75 s, 1000μM Glutamate + 10μM BINA, N=3) was -0.02536. The “Cross Correlation, Mean” value (Time 1.8 s, 1000μM Glutamate + 10μM BINA, N=3) was -0.02663, the “Cross Correlation, Mean” value (Time 1.85 s, 1000μM Glutamate + 10μM BINA, N=3) was -0.0191 and the “Cross Correlation, Mean” value (Time 1.9 s, 1000μM Glutamate + 10μM BINA, N=3) was -0.02267. The “Cross Correlation, Mean” value (Time 1.95 s, 1000μM Glutamate + 10μM BINA, N=3) was -0.02058, the “Cross Correlation, Mean” value (Time 2 s, 1000μM Glutamate + 10μM BINA, N=3) was -0.01998 and the “Cross Correlation, Mean” value (Time 2.05 s, 1000μM Glutamate + 10μM BINA, N=3) was -0.02099. For the same compound, the “Cross Correlation, Mean” value (Time 2.1 s, 1000μM Glutamate + 10μM BINA, N=3) was -0.01699, the “Cross Correlation, Mean” value (Time 2.15 s, 1000μM Glutamate + 10μM BINA, N=3) was -0.01762 and the “CRD dynamics by cross-correlation of donor and acceptor intensities” value (azi-CRD, 10 μM modulator, absence of glutamate) was “increased receptor dynamics”.
